{
  "source": "ChEMBL document CHEMBL4673317",
  "about": "“Linearolactone and Kaempferol Disrupt the Actin Cytoskeleton in Entamoeba histolytica: Inhibition of Amoebic Liver Abscess Development” (J Nat Prod, 2020)",
  "key": {"Entamoeba histolytica [1]": {"test_system": "Entamoeba histolytica", "test": "Antimicrobial activity against Entamoeba histolytica […] trophozoites infected in Syrian hamster assessed as ALT level at 0.1 mg/kg, ip at 4 days post infection and measured on day 8 (reference value: 276 +/- 24 U/L)", "assay_type": "functional, HM-1:IMSS", "conditions": "time 4 day"}, "Entamoeba histolytica [2]": {"test_system": "Entamoeba histolytica", "test": "Antimicrobial activity against Entamoeba histolytica […] trophozoites infected in Syrian hamster assessed as inhibition of amoebic liver abscess by measuring vascular congestion at 0.1 mg/kg, ip at 4 days post infection and measured on day 8 by H and E staining based microscopic method", "assay_type": "functional, organism-based", "conditions": "HM-1:IMSS, time 4.0 day"}, "Entamoeba histolytica [3]": {"test_system": "Entamoeba histolytica", "test": "Antimicrobial activity against Entamoeba histolytica […] trophozoites infected in Syrian hamster assessed as platelets at 0.1 mg/kg, ip at 4 days post infection and measured on day 8 (reference value: 439 +/- 108 […])", "assay_type": "functional, HM-1:IMSS", "conditions": "time 4 day"}, "Entamoeba histolytica [4]": {"test_system": "Entamoeba histolytica", "test": "Antimicrobial activity against Entamoeba histolytica […] trophozoites infected in Syrian hamster assessed as inhibition of amoebic liver abscess by abundant monocytes at 0.1 mg/kg, ip at 4 days post infection and measured on day 8 by H and E staining based microscopic method", "assay_type": "functional, organism-based", "conditions": "HM-1:IMSS, time 4.0 day"}, "Entamoeba histolytica [5]": {"test_system": "Entamoeba histolytica", "test": "Antimicrobial activity against Entamoeba histolytica […] trophozoites infected in Syrian hamster assessed as glucose level at 0.1 mg/kg, ip at 4 days post infection and measured on day 8 (reference value: 126 +/- 18 mg/dl)", "assay_type": "functional, HM-1:IMSS", "conditions": "time 4 day"}, "Entamoeba histolytica [6]": {"test_system": "Entamoeba histolytica", "test": "Antimicrobial activity against Entamoeba histolytica […] trophozoites infected in Syrian hamster assessed as ALP level at 0.1 mg/kg, ip at 4 days post infection and measured on day 8 (reference value: 638 +/- 50 U/L)", "assay_type": "functional, HM-1:IMSS", "conditions": "time 4 day"}, "Entamoeba histolytica [7]": {"test_system": "Entamoeba histolytica", "test": "Antimicrobial activity against Entamoeba histolytica […] trophozoites infected in Syrian hamster assessed as total bilirubin level at 0.1 mg/kg, ip at 4 days post infection and measured on day 8 (reference value: 0.8 +/- 0.2 mg/dl)", "assay_type": "functional, HM-1:IMSS", "conditions": "time 4 day"}, "Entamoeba histolytica [8]": {"test_system": "Entamoeba histolytica", "test": "Induction of apoptosis in Entamoeba histolytica […] trophozoites assessed as viable cells at IC50 concentration after 48 hrs by annexin-V-FITC/propidium iodide staining based flow cytometric analysis (reference value: 98%)", "assay_type": "functional, HM-1:IMSS"}, "Entamoeba histolytica [9]": {"test_system": "Entamoeba histolytica", "test": "Antimicrobial activity against Entamoeba histolytica […] trophozoites infected in Syrian hamster assessed as creatinine level at 0.1 mg/kg, ip at 4 days post infection and measured on day 8 (reference value: 0.9 +/- 0.06 mg/dl)", "assay_type": "functional, HM-1:IMSS", "conditions": "time 4 day"}, "Entamoeba histolytica [10]": {"test_system": "Entamoeba histolytica", "test": "Antimicrobial activity against Entamoeba histolytica […] trophozoites infected in Syrian hamster assessed as inhibition of amoebic liver abscess by measuring edema at 0.1 mg/kg, ip at 4 days post infection and measured on day 8 by H and E staining based microscopic method", "assay_type": "functional, organism-based", "conditions": "HM-1:IMSS, time 4.0 day"}, "Entamoeba histolytica [11]": {"test_system": "Entamoeba histolytica", "test": "Antimicrobial activity against Entamoeba histolytica […] trophozoites assessed as decrease in number of vacuoles at IC50 concentration after 48 hrs by uranyl acetate staining based TEM analysis", "assay_type": "functional, organism-based", "conditions": "HM-1:IMSS"}, "Entamoeba histolytica [12]": {"test_system": "Entamoeba histolytica", "test": "Induction of DNA fragmentation in Entamoeba histolytica […] trophozoites at IC50 concentration after 1 hr by TUNEL assay relative to control", "assay_type": "functional, HM-1:IMSS"}, "Entamoeba histolytica [13]": {"test_system": "Entamoeba histolytica", "test": "Induction of ROS generation in Entamoeba histolytica […] trophozoites at IC50 concentration incubated for 1 hr by DCFDA staining based assay", "assay_type": "functional, organism-based", "conditions": "HM-1:IMSS"}, "Entamoeba histolytica [14]": {"test_system": "Entamoeba histolytica", "test": "Binding affinity to Entamoeba histolytica […] trophozoites actin assessed as induction of polarization of polymerized actin at IC50 concentration incubated for 1 hrs by […] staining based confocal microscopic analysis"}, "Entamoeba histolytica [15]": {"test_system": "Entamoeba histolytica", "test": "Antimicrobial activity against Entamoeba histolytica HM1:MMS assessed as reduction in amoeba growth", "assay_type": "functional, organism-based", "conditions": "HM-1:IMSS"}, "Entamoeba histolytica [16]": {"test_system": "Entamoeba histolytica", "test": "Antimicrobial activity against Entamoeba histolytica […] trophozoites infected in Syrian hamster assessed as inhibition of amoebic liver abscess at 0.1 mg/kg, ip at 4 days post infection and measured on day 8 by NMR analysis", "assay_type": "functional, organism-based", "conditions": "HM-1:IMSS, time 4.0 day"}, "Entamoeba histolytica [17]": {"test_system": "Entamoeba histolytica", "test": "Antimicrobial activity against Entamoeba histolytica […] trophozoites assessed as decrease in size of cells at IC50 concentration after 48 hrs by uranyl acetate staining based TEM analysis", "assay_type": "functional, organism-based", "conditions": "HM-1:IMSS"}, "Entamoeba histolytica [18]": {"test_system": "Entamoeba histolytica", "test": "Antimicrobial activity against Entamoeba histolytica […] trophozoites assessed as decrease in granularity at IC50 concentration after 48 hrs by uranyl acetate staining based TEM analysis", "assay_type": "functional, organism-based", "conditions": "HM-1:IMSS"}, "Entamoeba histolytica [19]": {"test_system": "Entamoeba histolytica", "test": "Induction of ROS generation in Entamoeba histolytica […] trophozoites at IC50 concentration incubated for 1 hr in presence of catalase by DCFDA staining based assay relative to control", "assay_type": "functional, HM-1:IMSS"}, "Entamoeba histolytica [20]": {"test_system": "Entamoeba histolytica", "test": "Antimicrobial activity against Entamoeba histolytica […] trophozoites infected in Syrian hamster assessed as blood ureic nitrogen level at 0.1 mg/kg, ip at 4 days post infection and measured on day 8 (reference value: […])", "assay_type": "functional, HM-1:IMSS", "conditions": "time 4 day"}, "Entamoeba histolytica [21]": {"test_system": "Entamoeba histolytica", "test": "Antimicrobial activity against Entamoeba histolytica […] trophozoites infected in Syrian hamster assessed as triglycerides level at 0.1 mg/kg, ip at 4 days post infection and measured on day 8 (reference value: 395 +/- 41 mg/dl)", "assay_type": "functional, HM-1:IMSS", "conditions": "time 4 day"}, "Entamoeba histolytica [22]": {"test_system": "Entamoeba histolytica", "test": "Antimicrobial activity against Entamoeba histolytica […] trophozoites infected in Syrian hamster assessed as inhibition of amoebic liver abscess by measuring liver weight at 0.1 mg/kg, ip at 4 days post infection and measured on day 8 relative to control", "assay_type": "functional", "conditions": "HM-1:IMSS, 96 h, time 4 day"}, "Entamoeba histolytica [23]": {"test_system": "Entamoeba histolytica", "test": "Induction of apoptosis in Entamoeba histolytica […] trophozoites assessed as late apoptotic cells at IC50 concentration after 48 hrs by annexin-V-FITC/propidium iodide staining based flow cytometric analysis (reference value: 0.7%)", "assay_type": "functional, HM-1:IMSS"}, "Entamoeba histolytica [24]": {"test_system": "Entamoeba histolytica", "test": "Induction of apoptosis in Entamoeba histolytica […] trophozoites assessed as early apoptotic cells at IC50 concentration after 48 hrs by annexin-V-FITC/propidium iodide staining based flow cytometric analysis (reference value: 0.9%)", "assay_type": "functional, HM-1:IMSS"}, "CHO-K1": {"test_system": "CHO-K1", "test": "Cytotoxicity against CHO-K1 cells assessed as reduction in cell viability after 24 hrs by MTT assay", "assay_type": "cell-based", "conditions": "Cricetulus griseus, CHO-K1, 24 h"}, "BEAS-2B": {"test_system": "BEAS-2B", "test": "Cytotoxicity against human BEAS-2B cells assessed as reduction in cell viability after 24 hrs by MTT assay", "assay_type": "cell-based"}, "Entamoeba histolytica [25]": {"test_system": "Entamoeba histolytica", "test": "Antimicrobial activity against Entamoeba histolytica […] trophozoites infected in Syrian hamster assessed as urea level at 0.1 mg/kg, ip at 4 days post infection and measured on day 8 (reference value: 14 +/- 1 mg/dl)", "assay_type": "functional, HM-1:IMSS", "conditions": "time 4 day"}, "Entamoeba histolytica [26]": {"test_system": "Entamoeba histolytica", "test": "Antimicrobial activity against Entamoeba histolytica […] trophozoites assessed as abnormal condensation of chromatin at IC50 concentration after 48 hrs by uranyl acetate staining based TEM analysis", "assay_type": "functional, organism-based", "conditions": "HM-1:IMSS"}, "Entamoeba histolytica [27]": {"test_system": "Entamoeba histolytica", "test": "Induction of apoptosis in Entamoeba histolytica […] trophozoites assessed as necrotic cells at IC50 concentration after 48 hrs by annexin-V-FITC/propidium iodide staining based flow cytometric analysis (reference value: 0.4%)", "assay_type": "functional, HM-1:IMSS"}},
  "note": "pIC50: −log10 of the molar value. The source made the active and inactive calls. The calls are words filed in the database; no cut-off is given here.",
  "data": [
    {"smiles": "C[C@]12C[C@H](c3ccoc3)OC(=O)[C@H]1CC[C@@]13COC(=O)C1=CC=C[C@H]32", "values": [
      {"measurement": "Activity", "setting": "Entamoeba histolytica [1]", "result": 81, "unit": "U/L"},
      {"measurement": "inhibition", "setting": "Entamoeba histolytica [2]", "result": "Active"},
      {"measurement": "Activity", "setting": "Entamoeba histolytica [3]", "result": 320, "unit": "thousand/mm3"},
      {"measurement": "inhibition", "setting": "Entamoeba histolytica [4]", "result": "Active"},
      {"measurement": "Activity", "setting": "Entamoeba histolytica [5]", "result": 130, "unit": "mg/dL"},
      {"measurement": "Activity", "setting": "Entamoeba histolytica [6]", "result": 324, "unit": "U/L"},
      {"measurement": "Activity", "setting": "Entamoeba histolytica [7]", "result": 0.4, "unit": "mg/dL"},
      {"measurement": "Activity", "setting": "Entamoeba histolytica [8]", "result": 12.6, "unit": "%"},
      {"measurement": "Activity", "setting": "Entamoeba histolytica [9]", "result": 0.6, "unit": "mg/dL"},
      {"measurement": "inhibition", "setting": "Entamoeba histolytica [10]", "result": "Active"},
      {"measurement": "Activity", "setting": "Entamoeba histolytica [11]", "result": "Active"},
      {"measurement": "Activity", "setting": "Entamoeba histolytica [12]", "result": 78, "unit": "%"},
      {"measurement": "Activity", "setting": "Entamoeba histolytica [13]", "result": "Active"},
      {"measurement": "Activity", "setting": "Entamoeba histolytica [14]", "result": "Active"},
      {"measurement": "pIC50", "setting": "Entamoeba histolytica [15]", "result": 4.56},
      {"measurement": "inhibition", "setting": "Entamoeba histolytica [16]", "result": "Active"},
      {"measurement": "Activity", "setting": "Entamoeba histolytica [17]", "result": "Active"},
      {"measurement": "Activity", "setting": "Entamoeba histolytica [18]", "result": "Active"},
      {"measurement": "Activity", "setting": "Entamoeba histolytica [19]", "result": 52.68, "unit": "%"},
      {"measurement": "Activity", "setting": "Entamoeba histolytica [20]", "result": 17, "unit": "mg/dL"},
      {"measurement": "Activity", "setting": "Entamoeba histolytica [21]", "result": 127, "unit": "mg/dL"},
      {"measurement": "inhibition in vivo at 0.1 mg/kg", "setting": "Entamoeba histolytica [22]", "result": 93.3, "unit": "%"},
      {"measurement": "Activity", "setting": "Entamoeba histolytica [23]", "result": 58.6, "unit": "%"},
      {"measurement": "Activity", "setting": "Entamoeba histolytica [24]", "result": 19.5, "unit": "%"},
      {"measurement": "pIC50", "setting": "CHO-K1", "result": 3.06},
      {"measurement": "pIC50", "setting": "BEAS-2B", "result": 3.22},
      {"measurement": "Activity", "setting": "Entamoeba histolytica [25]", "result": 45, "unit": "mg/dL"},
      {"measurement": "Activity", "setting": "Entamoeba histolytica [26]", "result": "Active"},
      {"measurement": "Activity", "setting": "Entamoeba histolytica [27]", "result": 9.4, "unit": "%"}
    ]}
  ]
}
